Measurements taken from US9895345B2, “Use of Lappaol F to inhibit tumor cell growth” (The Research Foundation Foundation for the State University …, priority 2013, dated 2018).
Entries after “also recorded” stand apart in the source; their conditions may differ.

What was measured:
[1] = system: c-Myc, MDM2 and HuR; test: Oncogenic protein expression by Western blotting; type: cell-based, Human; conditions: 50 μM
Procedure: FIG. 8: Lappaol F down regulates the expression of several oncogenic proteins commonly overexpressed in human cancers and linked to oncogenic transformation. A-C. Lappaol F suppresses the expression of c-Myc (A), MDM2 (B) and HuR (C). Cells were untreated (“C”) or treated with Lappaol F (50 μM) for the indicated times and Western blot analyses were performed using the indicated antibodies.
(§1) Western blotting was done by standard protocols. Sources of the antibodies are as follows: antibodies for p21 and GAPDH were from Santa Cruz Biotechnology (Santa Cruz, Calif.); cyclin B1 antibody was from BD bioscience (San Jose, Calif.); p27 antibody was from Cell Signaling Technology (Danvers, Mass.). CDK1 and CDK2 were from Assay Biotechnology (Sunnyvale, Calif.). Northern blot analysis was performed. and a full-length p21 cDNA was used as a probe for detecting the expression of p21 mRNA.

[2] = system: p21 promoter in RKO p53-proficient (p53+/+) cells; test: p21 promoter luciferase assay; type: cell-based, Human; conditions: 50 μM, 24 hours
Procedure: (§2) FIG. 6: Lappaol F induces p21-promoter activation in cells with wild-type p53 and defective-p53. A&B MCF-7, MDA-MB-231 and RKO cells were untreated (DMSO) or treated with Lappaol F (50 μM) for 48 hrs; cells were then split into two parts; one part was used to analyze p21 mRNA expression by Northern blotting (A) and another part was utilized for p21 protein analysis by Western blotting (B). A full-length p21 cDNA was used as a probe for Northern blot analysis. C & D. p21 promoter luciferase activity in Lappaol F-treated and untreated cells with different p53 status. RKO and MCF-7 cells express the wild type-p53 protein whereas MDA-MB-231 expressing the mutant-p53. Hela cells harbor human papilloma virus; and p53 protein is not functional in these cells. Cells, transfected with p21 promoter luciferase construct, were untreated (DMSO) or treated with Lappaol F (50 μM) for 24 hours then analyzed for luciferase activity.
(§3) Luciferase assays were performed as follows. Briefly, cells transiently transfected with the p21-promoter luciferase construct were treated with or without Lappaol F (50 μM). Twenty-four hours later, luciferase activity of each cell lysate was analyzed using the Luciferase assay system (Thermo Scientific, Rockford, Ill.) with LUMAT LB9507 luminometer (Berthold Technologies, Germany).

[3] = system: p21 promoter in RKO p53-deficient (p53-/-) cells; test: p21 promoter luciferase assay; type: cell-based, Human; conditions: 50 μM, 24 hours
Procedure: as §2, §3

[4] = system: MCF-7 cells; test: Flow cytometry cell cycle analysis; type: cell-based, Human; conditions: 50 μM, 72 hrs
Procedure: (§4) FIG. 2: Lappaol F induces G1 and G2 cell cycle arrest. (A) Flow cytometry cell cycle analyses performed on cells treated with vehicle (DMSO) or Lappaol F (50 μM) for 72 hrs. (B) DAPI staining of RKO cells treated with Lappaol F (50 μM) for 72 hours. The number of mitotic cells over the total cells (mitotic index, MI) is also shown.
(§5) Cell cycle profile was determined by flow cytometry as follows. For determining the mitotic index, cells treated with or without Lappaol F were stained with 4′, 6-diamidino-2-phenylindole (DAPI). The number of mitotic cells was counted under a fluorescence microscope. Over 600 cells were counted in each sample and experiments were repeated at least three times.

[5] = system: RKO cells; test: Flow cytometry cell cycle analysis; type: cell-based, Human; conditions: 50 μM, 72 hrs
Procedure: as §4, §5

[6] = system: HeLa cells; test: Flow cytometry cell cycle analysis; type: cell-based, Human; conditions: 50 μM, 72 hrs
Procedure: as §4, §5

[7] = system: MDA-MB-231 cells; test: Flow cytometry cell cycle analysis; type: cell-based, Human; conditions: 50 μM, 72 hrs
Procedure: as §4, §5

[8] = system: HeLa tumor xenografts; test: HeLa xenograft tumor growth in nude mice; type: in vivo, BALB/c nude mice
From the text: All animal studies were approved and performed according to Animal Care and Use Guidelines of the Animal Ethics Committee at Guangzhou University of Chinese Medicine (Document No. syxk (Yue) 2008-0001). BALB/c nude mice (female, 4-5 weeks old) were first subcutaneously injected with 5×10^6 of HeLa cells on the back to establish tumor xenografts. Nine-days after tumor cell injection, mice with tumor volume of 90 mm^3-290 mm^3 were randomized into 3 groups; the average initial tumor volumes in each treatment group of mice were 161.28±23.9 mm^3 (for vehicle control), 160.7±17 7 mm^3 (for mice treated with Lappaol F 5 mg/kg) and 144.5±20 5 mm^3 (for mice treated with Lappaol F 10 mg/kg), respectively. Mice were then treated with Lappaol F (5 mg/kg/d, N=7; or 10 mg/kg/d, N=6) or with equivalent volume of vehicle (5% DMSO plus 5% Tween 80 in 5% glucose solution, 5 mL/kg/day, N=7) by intravenous injection for 15 days. Tumor size was monitored by measuring two perpendicular diameters with a caliper every 4 days. The tumor volume was calculated as volume=length×width^2×0.5. Cases of death and body weight in mice were monitored daily. The animal experiments were terminated on day 15 (tumor size exceeded a mean diameter of 20 mm in control animals) by sacrificing mice according to the guidelines. Tumor xenografts were then stripped and weighed. All results were expressed as Mean±standard error of the mean (SEM). Effects of various treatments were analyzed using the ONE-WAY ANOVA analysis and P-values <0.05 were considered statistically significant.

[9] = system: mutant-p53; test: Mutant-p53 expression by Western blotting; type: cell-based, Human
Procedure: (§6) FIG. 7: Lappaol F suppresses expression of mutant-p53 by reducing its half-life. A-C. Lappaol F has minimal effect on wild-type p53 protein expression in cells (MCF-7 and RKO) expressing wild-type p53 (A & C); however, Lappaol F strongly reduces mutant-p53 protein expression in MDA-MB-231, MDA-MB-468 and T47D cells (B & C). D & E. Treatment of Lappaol F reduces mutant-p53 protein half-life in MDA-MB-231 cells. Cells were first treated with or without with Lappaol F (50 μM) for 24 hours, cycloheximide (50 μg/ml) was then added into the cell culture medium for 0-8 hours and cells were harvested at 0, 2, 4, 6 and 8 hours after cycloheximide was added. Samples were subjected to Western blot analysis and the half-life of mutant p53 for cells treated with or without Lappaol F was determined F & G. Lappaol F decreases mutant p53 protein half-life in T47D cells. Mutant-p53 half-life was determined as described.
(§7) Western blotting was done by standard protocols. Sources of the antibodies are as follows: antibodies for p21 and GAPDH were from Santa Cruz Biotechnology (Santa Cruz, Calif.); cyclin B1 antibody was from BD bioscience (San Jose, Calif.); p27 antibody was from Cell Signaling Technology (Danvers, Mass.). CDK1 and CDK2 were from Assay Biotechnology (Sunnyvale, Calif.). […]

[10] = system: tumor cell lines of different tissue types; test: Initial cytotoxic screening (colony formation, microscopy); type: cell-based, Human; conditions: colon, breast, lung, cervix lines; 50 μM, 72 hours
Procedure: (§8) FIG. 1: A. The chemical structure of Lappaol F. B & C. […] Cells shown were treated with or without Lappaol F (50 μM) for 72 hours. D & E. Results of 3-[4, 5-dimethylthiazol-2-yl]-2, 5-diphenyl tetrazolium bromide (MTT) assays showing Lappaol F inhibits tumor cell growth in time- and dose-dependent manners in different cancer cell lines. F & G. MCF10A non-tumorigenic breast epithelial cells treated with Lappaol F (50 μM) for 3 days (F) or 6 days (G). After treatment, cells were harvested for MTT assays (G) or photographs were taken under a phase contrast microscope (F). H. Results of colony formation assay showing that Lappaol F inhibits colony formation by A549 (lung), HCT116 (colon) and DU145 (prostate) tumor cells. I-N. Results of MTT assays showing Lappaol F suppresses cell growth in leukemia, melanoma and sarcoma cell lines.

[11] = system: MCF10A non-cancerous breast epithelial cells; test: MTT assay / phase contrast microscopy on non-tumorigenic cells; type: cell-based, Human; conditions: 50 μM, 3 days or prolonged to six days
Procedure: as §8
(§9) MTT cell proliferation assays were performed as follows. Briefly, cells seeded in 12-well plate with or without drug treatment were incubated with 0.5 mg/ml 3-[4, 5-dimethylthiazol-2-yl]-2, 5-diphenyl tetrazolium bromide (MTT) for 1-4 hours. The resulting formazan precipitate was dissolved in isopropanol with 0.04 M HCl. Absorbance was read with a Bio-Rad SmartSpec 3100 at 570 nm with background subtraction read at 690 nm.

[12] = system: MCF-7 cells; test: MTT cell proliferation assay; type: cell-based, Human; conditions: read-out: estimated absolute EC50 of cell growth suppression
Procedure: as §9

[13] = system: RKO cells; test: MTT cell proliferation assay; type: cell-based, Human; conditions: read-out: estimated absolute EC50 of cell growth suppression
Procedure: as §9

[14] = system: MDA-MB-231 cells; test: MTT cell proliferation assay; type: cell-based, Human; conditions: read-out: estimated absolute EC50 of cell growth suppression
Procedure: as §9

[15] = system: RKO cells; test: Mitotic index by DAPI staining; type: cell-based, Human; conditions: 50 μM, 72 hours
Procedure: as §4, §5

[16] = system: caspases 8, 9 and 3 in HeLa cells; test: Caspase activation by Western blotting; type: cell-based, Human; conditions: 50 μM
Procedure: (§10) FIG. 4: Effect of Lappaol F on caspase activation. The indicated cells were treated with vehicle (DMSO) or Lappaol F (50 μM) for indicated time. Activation of caspases 8, 9 and 3 (indicated by reduced levels of procaspases) was analyzed by Western blotting using indicated antibodies. “C”: vehicle-treated control.
as §1

[17] = system: caspases 8, 9 and 3 in MDA-MB-231 cells; test: Caspase activation by Western blotting; type: cell-based, Human; conditions: 50 μM
Procedure: as §10, §1

[18] = system: caspases 8 and 9 in MCF-7 cells; test: Caspase activation by Western blotting; type: cell-based, Human; conditions: 50 μM
Procedure: as §10, §1

[19] = system: p21, p27, CDK2, cyclin B and CDK1; test: Cell cycle regulatory protein expression by Western blotting; type: cell-based, Human; conditions: 50 μM, different cell lines
Procedure: FIG. 3: Regulation of key cell cycle regulatory proteins by Lappaol F. A-D. The indicated cells were treated with vehicle (DMSO) or Lappaol F (50 μM) for indicated time and protein expression of different cell cycle regulatory protein was analyzed by Western blotting. “C”: vehicle-treated control.
as §1

[20] = system: wild-type p53; test: Wild-type p53 expression by Western blotting; type: cell-based, Human
Procedure: as §6, §7

[21] = system: p21 promoter (RKO, MCF-7, Hela, MDA-MB-231); test: p21 promoter luciferase assay in four cell lines; type: cell-based, Human; conditions: 50 μM, 24 hours
Procedure: as §2, §3

`COc1cc([C@H]2Oc3c(OC)cc(C[C@H]4COC(=O)[C@@H]4Cc4cc(OC)c5c(c4)[C@H](CO)[C@@H](c4ccc(O)c(OC)c4)O5)cc3[C@@H]2CO)ccc1O` [Lappaol F] was tested, and the “expression of c-Myc, MDM2 and HuR oncoproteins” value [1] was “strongly down-regulates”, the “induction of the p21 promoter” value [2] was 3.5 fold and the “upregulation of p21 promoter activity” value [3] was 8.3 folds. For the same compound, the “cell cycle arrest phase” value [4] was “predominantly arrested in 2N G1-phase”, the “cell cycle arrest phase” value [5] was “mainly arrested in 4N G2- (or M)-phase” and the “cell cycle arrest phase” value [6] was “predominantly arrested in 2N G1-phase”. For the same compound, the “sub-2N cell death population (sub-G1)” value [6] was 15%, the “cell cycle arrest phase” value [7] was “mainly arrested in 4N G2- (or M)-phase” and the “inhibition of tumor growth relative to vehicle” value ([8]; 5 mg/kg/day i.v., 15 days) was 54%. The “inhibition of tumor growth relative to vehicle” value ([8]; 10 mg/kg/day i.v., 15 days) was 64%, the “lethality / body weight change in mice” value ([8]; 5 and 10 mg/kg/day i.v., 15 days) was “without significant body weight changes; also recorded: did not observe lethality or weight loss” and the “effect on HeLa xenografts by intraperitoneal injection” value ([8]; intraperitoneal injection) was “did not show any significant effect”. The “levels of mutant-p53” value ([9]; MDA-MB-231 cells) was “significantly reduced”, the mutant-p53 expression ([9]; MDA-MB-468 and T47D cells) was “strongly inhibited” and the “growth inhibitory effect against tumor cell lines” value [10] was “strong growth inhibitory effect”. The “cytotoxicity towards MCF10A non-cancerous breast epithelial cells” value [11] was “minimal cytotoxicity”, the EC50 [12] was 13.3 µM and the EC50 [13] was 25.2 µM. For the same compound, the EC50 [14] was 16.8 µM, the “mitotic nuclei (mitotic index)” value [15] was “no mitotic nuclei were observed” and the caspase activation [16] was “elicited caspases 9 and 3 activation”. The caspase activation [17] was “activation of caspases 8, 9 and 3 was observed”, the caspase activation [18] was “no clear evidence of caspase activation” and the “expression levels of CDK inhibitors p21 and p27” value [19] was “strikingly elevated”. The “levels of CDK2, cyclin B and CDK1” value [19] was “clearly reduced”, the “levels of wild-type p53” value ([20]; MCF-7 cells) was “no significant influence” and the “expression levels of wild-type-p53” value ([20]; RKO cells) was “did not significantly affect”. The p21 promoter activity [21] was “significantly enhanced”.
